In US9179694B2, “Method and composition for enhancing milk production and milk component concentrations” (PURINA ANIMAL NUTRITION LLC, priority 2003, dated 2015):
Marks after values point to notes of the source that are not given here.

Test: Total solids content of produced milk in sorbitol feeding trials
Type: in vivo, Holstein cows
Settings: for Total Solids in Produced Milk: Pre-Partum Trial #1 (75/0/0 g/day in wk −3..−1/+1..+4/+5..+8)
Method: To determine the weight percent total solids, wet basis, in a sample, the actual weight of total solids is determined by analyzing the sample in accordance with Method #925.23 (33.2.09) of Official Methods of Analysis, Association of Official Analytical Chemists (AOAC) (16th Ed., 1995). The weight percent total solids, wet basis, is then calculated by dividing the actual weight of total solids by the actual weight of the sample. Each cow of each of the six different trials (Control Trial #1, Control Trial #2, Pre-Partum Trial #1, Pre-Partum Trial #2, Pre/Post Trial #1, and Pre/Post Trial #2) was milked three times daily and the weight of produced milk by each cow was recorded at each milking. The milk from each cow was sampled once per week (⅓ of the sample volume from each of the three milkings occurring on the weekly milk sampling day) and was analyzed for true protein, total fat, lactose, and total solids, as detailed in the property determination and characterization techniques presented above. Additionally, samples of blood were periodically obtained from each cow during the four trials (Control Trial 2, Pre-Partum Trial #2, Pre/Post Trial #1, and Pre/Post Trial #2) encompassed in Example Two and were analyzed for non-esterified fatty acid (NEFA) content as detailed in the property determination and characterization techniques presented above. No NEFA analysis was conducted on the cows employed in Control Trial #1 or Pre-Partum Trial #1 that are the subject of Example One. Example One includes Control Trial #1 and Pre-Partum Trial #1. Both primiparious cows and multiparious cows were included in Control Trial #1 and Pre-Partum Trial #1. Five primiparious cows and fifteen multiparious cows were included in Control Trial #1; likewise, five primiparious cows and fifteen multiparious cows were included in Pre-Partum Trial #1. All cows included in Control Trial #1 and Pre-Partum Trial #1 were Holsteins. Example Two includes Control Trial #2, Pre-Partum Trial #2, Pre/Post Trial #1, and Pre/Post Trial #2. Only multiparious, Holstein cows were included in Control Trial #2, […], Pre/Post Trial #1, and Pre/Post Trial #2. Eighteen multiparious cows were included in both Control Trial #2 and Pre-Partum Trial #2, while sixteen multiparious cows were included in Pre/Post Trial #1 and seventeen multiparious cows were included in Pre/Post Trial #2.

## OC[C@@H](O)[C@@H](O)[C@H](O)[C@@H](O)CO [sorbitol]
Multiparious cows, weeks +1 through +8
  Total Solids in Produced Milk: 12.0^ab wt %
Primiparious cows, weeks +1 through +8
  Total Solids in Produced Milk: 13.0 wt %
Pre-Partum Trial #1 (75 g/day wk −3..−1 only) versus Control Trial #1, primiparious cows, weeks +1 through +8
  increase in total solids concentration in the produced milk: 7.4%
Pre-Partum Trial #2 (75/0/100 g/day in wk −3..−1/+1..+4/+5..+8), multiparious cows, week +1
  Total Solids Content of Produced Milk: 14.4^a weight %
Pre-Partum Trial #2 (75/0/100 g/day in wk −3..−1/+1..+4/+5..+8), multiparious cows, week +2
  Total Solids Content of Produced Milk: 13.25 weight %
Pre-Partum Trial #2 (75/0/100 g/day in wk −3..−1/+1..+4/+5..+8), multiparious cows, week +3
  Total Solids Content of Produced Milk: 12.54 weight %
Pre-Partum Trial #2 (75/0/100 g/day in wk −3..−1/+1..+4/+5..+8), multiparious cows, week +4
  Total Solids Content of Produced Milk: 11.76^a weight %
Pre-Partum Trial #2 (75/0/100 g/day in wk −3..−1/+1..+4/+5..+8), multiparious cows, week +5
  Total Solids Content of Produced Milk: 11.60^a weight %
Pre-Partum Trial #2 (75/0/100 g/day in wk −3..−1/+1..+4/+5..+8), multiparious cows, week +6
  Total Solids Content of Produced Milk: 11.43^a weight %
Pre-Partum Trial #2 (75/0/100 g/day in wk −3..−1/+1..+4/+5..+8), multiparious cows, week +7
  Total Solids Content of Produced Milk: 11.55 weight %
Pre-Partum Trial #2 (75/0/100 g/day in wk −3..−1/+1..+4/+5..+8), multiparious cows, week +8
  Total Solids Content of Produced Milk: 11.45^ab weight %
Pre-Partum Trial #2 (75/0/100 g/day in wk −3..−1/+1..+4/+5..+8), multiparious cows, weeks +1 through +4
  Total Solids Content of Produced Milk: 12.94^a weight %
Pre-Partum Trial #2 (75/0/100 g/day in wk −3..−1/+1..+4/+5..+8), multiparious cows, weeks +1 through +8
  Total Solids Content of Produced Milk: 12.23^a weight %
Pre-Partum Trial #2 (75/0/100 g/day in wk −3..−1/+1..+4/+5..+8), multiparious cows, weeks +5 through +8
  Total Solids Content of Produced Milk: 11.51^a weight %
Pre/Post Trial #1 (150/125/100 g/day in wk −3..−1/+1..+4/+5..+8), multiparious cows, week +1
  Total Solids Content of Produced Milk: 15.3^ab weight %
Pre/Post Trial #1 (150/125/100 g/day in wk −3..−1/+1..+4/+5..+8), multiparious cows, week +1, two-trial comparison with Control Trial #2 (Table 26)
  Total Solids Content of Produced Milk: 15.3 weight %
Pre/Post Trial #1 (150/125/100 g/day in wk −3..−1/+1..+4/+5..+8), multiparious cows, week +2
  Total Solids Content of Produced Milk: 12.28 weight %
Pre/Post Trial #1 (150/125/100 g/day in wk −3..−1/+1..+4/+5..+8), multiparious cows, week +2, two-trial comparison with Control Trial #2 (Table 26)
  Total Solids Content of Produced Milk: 13.28 weight %
Pre/Post Trial #1 (150/125/100 g/day in wk −3..−1/+1..+4/+5..+8), multiparious cows, week +3
  Total Solids Content of Produced Milk: 12.84 weight %
Pre/Post Trial #1 (150/125/100 g/day in wk −3..−1/+1..+4/+5..+8), multiparious cows, week +3, two-trial comparison with Control Trial #2 (Table 26)
  Total Solids Content of Produced Milk: 12.84 weight %
Pre/Post Trial #1 (150/125/100 g/day in wk −3..−1/+1..+4/+5..+8), multiparious cows, week +4
  Total Solids Content of Produced Milk: 12.54^c weight %
Pre/Post Trial #1 (150/125/100 g/day in wk −3..−1/+1..+4/+5..+8), multiparious cows, week +4, two-trial comparison with Control Trial #2 (Table 26)
  Total Solids Content of Produced Milk: 12.54 weight %
Pre/Post Trial #1 (150/125/100 g/day in wk −3..−1/+1..+4/+5..+8), multiparious cows, week +5
  Total Solids Content of Produced Milk: 12.17^ab weight %
Pre/Post Trial #1 (150/125/100 g/day in wk −3..−1/+1..+4/+5..+8), multiparious cows, week +5, two-trial comparison with Control Trial #2 (Table 26)
  Total Solids Content of Produced Milk: 12.17 weight %
Pre/Post Trial #1 (150/125/100 g/day in wk −3..−1/+1..+4/+5..+8), multiparious cows, week +6
  Total Solids Content of Produced Milk: 12.08^b weight %
Pre/Post Trial #1 (150/125/100 g/day in wk −3..−1/+1..+4/+5..+8), multiparious cows, week +6, two-trial comparison with Control Trial #2 (Table 26)
  Total Solids Content of Produced Milk: 12.08 weight %
Pre/Post Trial #1 (150/125/100 g/day in wk −3..−1/+1..+4/+5..+8), multiparious cows, week +7
  Total Solids Content of Produced Milk: 11.71 weight %
Pre/Post Trial #1 (150/125/100 g/day in wk −3..−1/+1..+4/+5..+8), multiparious cows, week +7, two-trial comparison with Control Trial #2 (Table 26)
  Total Solids Content of Produced Milk: 11.71 weight %
Pre/Post Trial #1 (150/125/100 g/day in wk −3..−1/+1..+4/+5..+8), multiparious cows, week +8
  Total Solids Content of Produced Milk: 12.06^b weight %
Pre/Post Trial #1 (150/125/100 g/day in wk −3..−1/+1..+4/+5..+8), multiparious cows, week +8, two-trial comparison with Control Trial #2 (Table 26)
  Total Solids Content of Produced Milk: 12.06 weight %
Pre/Post Trial #1 (150/125/100 g/day in wk −3..−1/+1..+4/+5..+8), multiparious cows, weeks +1 through +4
  Total Solids Content of Produced Milk: 13.49^ab weight %
Pre/Post Trial #1 (150/125/100 g/day in wk −3..−1/+1..+4/+5..+8), multiparious cows, weeks +1 through +4, two-trial comparison with Control Trial #2 (Table 26)
  Total Solids Content of Produced Milk: 13.49 weight %
Pre/Post Trial #1 (150/125/100 g/day in wk −3..−1/+1..+4/+5..+8), multiparious cows, weeks +1 through +8
  Total Solids Content of Produced Milk: 12.76^b weight %
Pre/Post Trial #1 (150/125/100 g/day in wk −3..−1/+1..+4/+5..+8), multiparious cows, weeks +1 through +8, two-trial comparison with Control Trial #2 (Table 26)
  Total Solids Content of Produced Milk: 12.76 weight %
Pre/Post Trial #1 (150/125/100 g/day in wk −3..−1/+1..+4/+5..+8), multiparious cows, weeks +5 through +8
  Total Solids Content of Produced Milk: 12.02^b weight %
Pre/Post Trial #1 (150/125/100 g/day in wk −3..−1/+1..+4/+5..+8), multiparious cows, weeks +5 through +8, two-trial comparison with Control Trial #2 (Table 26)
  Total Solids Content of Produced Milk: 12.02 weight %
Pre/Post Trial #1 (150/125/100 g/day) versus Control Trial #2, multiparious cows, weeks +1 through +4 (Table 26)
  increase in total solids concentration in milk: more than 3.7%
Pre/Post Trial #1 (150/125/100 g/day) versus Control Trial #2, multiparious cows, weeks +1 through +8
  greater total solids concentration in milk: 4.6%
Pre/Post Trial #1 (150/125/100 g/day) versus Control Trial #2, multiparious cows, weeks +1 through +8 (Table 26)
  increase in total solids concentration in milk: ~4.6%
Pre/Post Trial #1 (150/125/100 g/day) versus Control Trial #2, multiparious cows, weeks +5 through +8
  greater total solids concentration in milk: 5.2%
Pre/Post Trial #1 (150/125/100 g/day) versus Control Trial #2, multiparious cows, weeks +5 through +8 (Table 26)
  increase in total solids concentration in milk: more than 5.2%
Pre/Post Trial #1 (150/125/100 g/day) versus Pre-Partum Trial #2 (75/0/100 g/day), multiparious cows, weeks +1 through +8
  greater total solids concentration in milk: 4.3%
Pre/Post Trial #1 (150/125/100 g/day) versus Pre-Partum Trial #2 (75/0/100 g/day), multiparious cows, weeks +5 through +8
  greater total solids concentration in milk: 4.4%
Pre/Post Trial #2 (75/75/100 g/day in wk −3..−1/+1..+4/+5..+8), multiparious cows, week +1
  Total Solids Content of Produced Milk: 15.6^b weight %
Pre/Post Trial #2 (75/75/100 g/day in wk −3..−1/+1..+4/+5..+8), multiparious cows, week +2
  Total Solids Content of Produced Milk: 13.61 weight %
Pre/Post Trial #2 (75/75/100 g/day in wk −3..−1/+1..+4/+5..+8), multiparious cows, week +3
  Total Solids Content of Produced Milk: 12.92 weight %
Pre/Post Trial #2 (75/75/100 g/day in wk −3..−1/+1..+4/+5..+8), multiparious cows, week +4
  Total Solids Content of Produced Milk: 12.43^bc weight %
Pre/Post Trial #2 (75/75/100 g/day in wk −3..−1/+1..+4/+5..+8), multiparious cows, week +5
  Total Solids Content of Produced Milk: 12.38^b weight %
Pre/Post Trial #2 (75/75/100 g/day in wk −3..−1/+1..+4/+5..+8), multiparious cows, week +6
  Total Solids Content of Produced Milk: 11.89^ab weight %
Pre/Post Trial #2 (75/75/100 g/day in wk −3..−1/+1..+4/+5..+8), multiparious cows, week +7
  Total Solids Content of Produced Milk: 11.64 weight %
Pre/Post Trial #2 (75/75/100 g/day in wk −3..−1/+1..+4/+5..+8), multiparious cows, week +8
  Total Solids Content of Produced Milk: 11.57^ab weight %
Pre/Post Trial #2 (75/75/100 g/day in wk −3..−1/+1..+4/+5..+8), multiparious cows, weeks +1 through +4
  Total Solids Content of Produced Milk: 13.63^b weight %
Pre/Post Trial #2 (75/75/100 g/day in wk −3..−1/+1..+4/+5..+8), multiparious cows, weeks +1 through +8
  Total Solids Content of Produced Milk: 12.73^b weight %
Pre/Post Trial #2 (75/75/100 g/day in wk −3..−1/+1..+4/+5..+8), multiparious cows, weeks +5 through +8
  Total Solids Content of Produced Milk: 11.87^ab weight %
Pre/Post Trial #2 (75/75/100 g/day) versus Control Trial #2, multiparious cows, weeks +1 through +4
  greater total solids concentration in milk: 4.8%
Pre/Post Trial #2 (75/75/100 g/day) versus Control Trial #2, multiparious cows, weeks +1 through +8
  greater total solids concentration in milk: 4.3%
Pre/Post Trial #2 (75/75/100 g/day) versus Pre-Partum Trial #2 (75/0/100 g/day), multiparious cows, weeks +1 through +4
  greater total solids concentration in milk: 5.3%
Pre/Post Trial #2 (75/75/100 g/day) versus Pre-Partum Trial #2 (75/0/100 g/day), multiparious cows, weeks +1 through +8
  greater total solids concentration in milk: 4.1%
Average of means of Pre-Partum Trial #2, Pre/Post Trial #1 and Pre/Post Trial #2 versus Control Trial #2, multiparious cows, weeks +1 through +4
  increase in total solids concentration in milk: 2.7%
Average of means of Pre-Partum Trial #2, Pre/Post Trial #1 and Pre/Post Trial #2 versus Control Trial #2, multiparious cows, weeks +1 through +8
  increase in total solids concentration in milk: 1.1%
Average of means of Pre-Partum Trial #2, Pre/Post Trial #1 and Pre/Post Trial #2 versus Control Trial #2, multiparious cows, weeks +5 through +8
  increase in total solids concentration in milk: 3.3%
